From US6495330B1, “Materials and methods relating to the diagnosis and treatment of pre-eclampsia and diabetes” (Rodaris Pharmaceuticals Limited, priority 1996, dated 2002)

System: rat adipocytes
Experiment: IPG A-type bioassay: stimulation of lipogenesis ([U14C] glucose into lipids) in adipocytes
Format: cell-based
Details: insulin standard assayed at the same time
Description: The activity of P- and A-type IPGs in urine and placental extracts were studied using specific bioassay procedures. IPG P-type was determined using the activation of PDH phosphatase. The PDH complex and PDH phosphatase (metal-dependent form) were prepared from beef heart as described by Lilley et al. and the assay of the activation of the phosphatase was performed by the spectrophotometric variant of the two-stage system described by these authors. This assay is considered to be a characteristic feature of IPG P-type (see Larner et al.) . IPG A-type was determined by the stimulation of lipogenesis as measured by the incorporation of [U^14C] glucose into the lipids of adipocytes isolated from epididymal fat pads by the method of Rodbell. A high degree of specificity for IPG A-type was found for this bioassay.
A straight line relationship between added IPGs and the stimulation of PDH phosphatase activity (IPG P-type) and lipogenesis in intact adipocytes (IPG A-type) was obtained; this relationship held at least up to a stimulation of +250%. These observations provided a basis for a unit to be defined and used for the purpose of comparison of yields of IPGs from different tissues and urine samples.
A unit of IPG is defined as the amount causing a 50% activation in the basal level of the test system.

Substance: insulin [insulin standard]
- stimulation of lipogenesis above base-line: +258%
